Measurements from patent US20100137266A1, “TREATMENT OF INSULIN RESISTANCE AND DISORDERS ASSOCIATED THEREWITH” (UNIVERSITETET I OSLO, priority 2006, published 2010).

Assays:
[1] = tested on: LXR target genes; experiment: Gene expression of LXR target genes in myotubes by Real-Time RT-PCR; format: cell-based, human; settings: for expression of LXRα, increase / expression of SREBP1c, increase: mRNA normalized to 36B4; for mRNA expression of ACSL1, increase / mRNA expression of FAS, increase / mRNA expression of SCD-1, increase / mRNA expression of fatty acid transporter CD36, increase: 1 μM T0901317 or 10 μM 22-R-HC for 4 days; for mRNA expression of CD36, FAS, ACSL1 and SCD-1 compared to T0901317: 10 μM for 4 days vs 1 μM T0901317
Text: FIG. 5. Effects of 22-hydroxycholesterols on expression of LXR target genes in human myotubes. Human myoblasts were differentiated and treated with LXR ligands as described in FIG. 3. Total RNA were isolated from the cells, reversely transcribed and analyzed by Real-Time RT-PCR. Results are normalized to levels of 36B4 and present means±SEM (n=4-6; independent muscle cell donors). Relative expressions of (A) liver X receptor […], LXRβ, and sterol regulatory element-binding protein (SREBP)1c, (B) ATP-binding cassette transporter (ABC)A1 (C) acyl-CoA synthetase long chain family member 1 (ACSL1), fatty acid transporter (CD36), fatty acid synthase (FAS), and stearoyl-CoA desaturase (SCD)-1. *p<0.05 vs control, **p<0.05 vs all other treatments.
Human skeletal muscle cell cultures. A cell bank of satellite cells was established from muscle biopsy samples of the M. vastus lateralis of 6 healthy volunteers, age 25.7 years (±1.4), with BMI 21.6 (±1.0) and fasting glucose and insulin within normal range. The biopsies were obtained with informed consent and by approval of the National Committee for Research Ethics, Oslo, Norway. Muscle cell cultures free of fibroblasts were established by the method of Henry et al. (Diabetes, 44, 936-946, 1995), with minor modifications. Briefly, muscle tissue was dissected in Ham's F-10 media at 4° C., dissociated by three successive treatments with 0.05% trypsin/EDTA, and satellite cells were re-suspended in SkGM with 2% FCS and no added insulin. The cells were grown on culture wells coated with ECM gel (Apmis, 109, 726-734, 2001). At about 80% confluence, fusion of myoblasts into multinucleated myotubes was achieved by growth in DMEM with 2% FCS. All cells used were at passage 4 to 6. After 2 days in DMEM the cells were exposed to vehicle (0.1% DMSO), 1 μM T0901317, 10 μM 22-R-hydroxycholesterol (22-R-HC) or 10 μM 22-S-hydroxycholesterol (22-S-HC) for 4 days.
RNA isolation and analysis of gene expression by RT-PCR. Myotubes were washed, trypsinized and pelleted before total RNA was isolated by RNeasy Mini kit (Qiagen Sciences, Oslo, Norway) or Agilent Total RNA Mini kit (Matrix, Oslo, Norway) according to the suppliers total RNA isolation protocol. RNA samples were incubated with RNase-free DNase (Qiagen Sciences) for minimum 15 min in an additional step during the RNA isolation procedure. Total RNA (1 μg/μl) was reversely transcribed with hexamere primers using a Perkin-Elmer Thermal Cycler 9600 (25° C. for 10 min, 37° C. for 1 h, 99° C. for 5 min) and a TaqMan reverse-transcription reagents kit (Applied Biosystems). Real time PCR was performed using an ABI PRISM® 7000 Detection System. DNA expression was determined by SYBR® Green (Applied Biosystems), and primers [36B4 (Acc#M17885), ACSL1 (Acc#NM_001995), ABCA1 (Acc#AF165281), CD36 (Acc#L06850), FAS (Acc#U26644), GAPDH (Acc#J104038/M33197, GLUT4 (Acc#M20747), LXRα (Acc#U22662), LXR (Acc#U07132), Myogenin (Acc#X17651), MyoD (Acc#BC064493), PPARα (Acc#L02932), PPARδ (Acc#BC002715), PPARγ (Acc#L40904), SCD-1 (Acc#AB032261), SREBP1c (Acc#U00968)], GLUT1, (Acc#03195), GLUT3 (Acc#M20681), HKII (Acc#AF148513) were designed using Primer Express® (Applied Biosystems). Each target gene was quantified in triplicates and carried out in a 25 μl reaction volume according to the suppliers protocol. All assays were run for 40 cycles (95° C. for 12 s followed by 60° C. for 60 s). The transcription levels were normalized to the housekeeping control genes 36B4 and GAPDH.

[2] = tested on: human myotubes; experiment: Glucose uptake (2-deoxy-D-glucose) in myotubes; format: cell-based; settings: for basal glucose uptake, increase: myotubes from young, healthy subjects, exposure for 4 days, 1 μmol/l T0901317 or 10 μmol/l 22-HC
Text: FIG. 7. Glucose transport is increased in human myotubes after chronic 22-S-HC treatment. Human myoblasts were allowed to differentiate for 2 days, and then exposed to 1 μmol/1 T0901317, 10 μmol/[…]) or 1, 2, 5 and 10 μmol/1 22-S-HC(S-HC) for 4 days. […] (A) Present means for glucose uptake±SEM (n=4). Basal level for control are 1.20±0.24 nmol/mg cell protein. (B) A representative dose-response curve for glucose uptake after 1, 2, 5 and 10 μmol/l 22-S-HC treatment (n=3). (C) Total RNA were reversely transcribed and analyzed by Real-Time RT-PCR. Results are normalized to levels of 36B4 and present means±SEM (n=4-6). Relative expressions of GLUT1, GLUT3, GLUT4, and hexokinase (HK)II, ^ap<0.05 vs control, ^dp<0.05 vs T0901317. Glucose Uptake. Skeletal biopsies were taken from M.vastus lateralis of healthy human donors and human myoblasts were allowed to differentiate for 4 days. On day 4, myotubes were exposed to T0901317 or 22-R-HC or 22-S-HC for another 4 days. […] Cells were solubilized by addition of 500 μl 0.1 mol/l NaOH. An aliquot (50 μl) was removed for protein determination (Bradford 1976) 300 μl was counted by liquid scintillation ([…] and Beck-Nielsen 2004).

[3] = 1 μM T0901317 or 10 μM 22-HC for 4 days
[4] = 10 μM chronic treatment (4 days)

CC(C)CC[C@@H](O)[C@@H](C)[C@H]1CC[C@H]2[C@@H]3CC=C4C[C@@H](O)CC[C@]4(C)[C@H]3CC[C@]12C [Example 22-R-HC, 22-R-hydroxycholesterol]
expression level of ABCA1, increase [1, 3]: 17 fold
expression of LXRα, increase [1, 3]: 2-3 fold
expression of SREBP1c, increase [1, 3]: 2-3 fold
mRNA expression of ACSL1, increase [1]: unaffected
mRNA expression of FAS, increase [1]: unaffected
mRNA expression of SCD-1, increase [1]: unaffected
mRNA expression of fatty acid transporter CD36, increase [1]: unaffected
mRNA expression of CD36, FAS, ACSL1 and SCD-1 compared to T0901317 [1]: significantly reduced
basal glucose uptake, increase [2]: tended to increase
glucose uptake after pre-treatment of myotubes (summary statement) [2]: only a slight or no significant effect

CC(C)CC[C@H](O)[C@@H](C)[C@H]1CC[C@H]2[C@@H]3CC=C4C[C@@H](O)CC[C@]4(C)[C@H]3CC[C@]12C [Example 22-S-HC, 22-S-hydroxycholesterol]
expression level of ABCA1, increase [1, 3]: very slightly (but insignificantly)
expression level of LXRbeta [1, 3]: None of the genes described in FIG. 5A-B were significantly affected
expression of LXRα, increase [1, 3]: None of the genes described in FIG. 5A-B were significantly affected
expression of SREBP1c, increase [1, 3]: None of the genes described in FIG. 5A-B were significantly affected
ACSL1 mRNA expression, down-regulation [1, 4]: 50-80%
CD36 mRNA expression, down-regulation [1, 4]: 50-80%
SCD-1 mRNA expression, down-regulation [1, 4]: 50-80%
mRNA expression of CD36, FAS, ACSL1 and SCD-1 compared to T0901317 [1]: significantly reduced
basal glucose uptake, dose response ([2]; 0, 1.0, 2.0, 5.0 and 10 μmol/l for 4 days): increased in a dose—dependent manner
basal glucose uptake, increase [2]: 2 fold
glucose uptake after pre-treatment of myotubes (summary statement) [2]: marked stimulation

O=S(=O)(c1ccccc1)N(CC(F)(F)F)c1ccc(C(O)(C(F)(F)F)C(F)(F)F)cc1 [Example T0901317]
expression level of ABCA1, increase [1, 3]: 14 fold
expression of LXRα, increase [1, 3]: 4-5 fold
expression of SREBP1c, increase [1, 3]: 4-5 fold
mRNA expression of ACSL1, increase [1]: 5 fold
mRNA expression of FAS, increase [1]: 4 fold
mRNA expression of SCD-1, increase [1]: 10 fold
mRNA expression of fatty acid transporter CD36, increase [1]: 2 fold
basal glucose uptake, increase [2]: no effect
glucose uptake after pre-treatment of myotubes (summary statement) [2]: only a slight or no significant effect
